In patent US7553967B2, “1,2-Dihydroquinoline derivatives and method for using the same to treat HIV infections” (Wyeth, priority 2004, dated 2009):

Molecular target: T1, HIV Reverse transcriptase (RT) 66/p51 (Human immunodeficiency virus type 1 group M subtype B, UniProt P04585)
T1 construct: HIV Reverse transcriptase (RT) 66/p51; purchased Worthington
Experiment: RNA dependent DNA polymerase (RDDP) activity of HIV RT, 33P-TTP incorporation on polyrA-oligodT12-18, filter plate
Format: biochemical

Q: How did the IC50 turn out when Cc1cn([C@H]2C[C@H](N=[N+]=[N-])[C@@H](CO)O2)c(=O)[nH]c1=O [AZT] was run?
A: < 200 nM
